Data on 14 molecules can be found in patent US12643871B2, “Aryl formamide compound containing chiral sulfur oxide or salt thereof, preparation method, herbicidal composition and use thereof” (Qingdao Kingagroot Chemical Compound Co., Ltd., priority 2019, dated 2026).

What all share (test): Weeding effect in post-emergence stage
What all share (type): in vivo
Details in all cases: 250 g/ha; 2 leaf stage; 15 days after application; fresh weight control rate

Test [1] has as its system Digitaria sanguinalis. Put shortly: (§1)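 Two-leaf-stage pot plants, spray-tower application at 500/250/125/60/30/15 g/ha with methyl oleate EC synergist; fresh weight control level (0–5) read at 15 days post-treatment, three replicates averaged.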
Test [2] deals with Abutilon theophrasti. In outline:
as §1

Test [3] relates to Amaranthus retroflexus. In outline:
as §1

For test [4], the system named is Echinochloa crusgali. In outline: as §1
For test [5], the system named is Setaria viridis. Put shortly:
as §1

Molecules are shown by their SMILES.

As for `CC[S+]([O-])c1c(C(F)(F)F)ccc(C(=O)N(c2nnc(C)o2)C(C)OC(=O)OC)c1OC` (mixture of isomers) [Compound 421], the “weeding effect in post-emergence stage, activity level (growth control rate), Digitaria sanguinalis” value (“weeding effect … Digitaria sanguinalis” below) in test [1] was 5 (Level 5: growth control rate is above 85%). Also, the “weeding effect in post-emergence stage, activity level (growth control rate), Abutilon theophrasti” value (from here on “weeding effect … Abutilon theophrasti”) in test [2] is 5 (Level 5: growth control rate is above 85%). Also, the “weeding effect in post-emergence stage, activity level (growth control rate), Amaranthus retroflexus” value (from here on “weeding effect … Amaranthus retroflexus”) in test [3] is 5 (Level 5: growth control rate is above 85%). Moreover, the “weeding effect in post-emergence stage, activity level (growth control rate), Echinochloa crusgali” value (“weeding effect … Echinochloa crusgali” below) in test [4] was 5 (Level 5: growth control rate is above 85%). In test [5], the “weeding effect in post-emergence stage, activity level (growth control rate), Setaria viridis” value (“weeding effect … Setaria viridis” for short) was 5 (Level 5: growth control rate is above 85%).

Take `CCOC(=O)OC(C)N(C(=O)c1ccc(C(F)(F)F)c([S+]([O-])CC)c1OC)c1nnc(C)o1` (mixture of isomers) [Compound 422]: in test [1], the “weeding effect … Digitaria sanguinalis” value is recorded as 5 (Level 5: growth control rate is above 85%). Moreover, the “weeding effect … Abutilon theophrasti” value in test [2] is on record as 5 (Level 5: growth control rate is above 85%). In addition, the “weeding effect … Amaranthus retroflexus” value in test [3] is recorded as 5 (Level 5: growth control rate is above 85%). For the same molecule, the “weeding effect … Echinochloa crusgali” value in test [4] is listed as 5 (Level 5: growth control rate is above 85%). Moreover, the “weeding effect … Setaria viridis” value in test [5] was 5 (Level 5: growth control rate is above 85%).

Turning to `CCC(C)[S@@+]([O-])c1c(C(F)(F)F)ccc(C(=O)Nc2nnc(C)o2)c1F` (stereo partly shown) [Compound 5], the “weeding effect … Digitaria sanguinalis” value in test [1] was 5 (Level 5: growth control rate is above 85%). For the same molecule, the “weeding effect … Abutilon theophrasti” value in test [2] was 5 (Level 5: growth control rate is above 85%). Besides, in test [3], the “weeding effect … Amaranthus retroflexus” value is listed as 5 (Level 5: growth control rate is above 85%). Further, the “weeding effect … Echinochloa crusgali” value in test [4] is 5 (Level 5: growth control rate is above 85%). Moreover, in test [5], the “weeding effect … Setaria viridis” value was 5 (Level 5: growth control rate is above 85%).

Regarding `Cc1nnc(NC(=O)c2ccc(C(F)(F)F)c([S@+]([O-])C(C)(C)C)c2F)o1` [Compound 7], the “weeding effect … Digitaria sanguinalis” value in test [1] was 4 (Level 4: growth control rate is greater than or equal to 60% and less than 85%). In addition, the “weeding effect … Abutilon theophrasti” value in test [2] was 5 (Level 5: growth control rate is above 85%). Besides, in test [3], the “weeding effect … Amaranthus retroflexus” value is 5 (Level 5: growth control rate is above 85%). The “weeding effect … Echinochloa crusgali” value in test [4] is reported as 5 (Level 5: growth control rate is above 85%). The “weeding effect … Setaria viridis” value in test [5] was 4 (Level 4: growth control rate is greater than or equal to 60% and less than 85%).

`Cc1nnc(NC(=O)c2ccc(C(F)(F)F)c([S@+]([O-])CCC(C)C)c2F)o1` [Compound 9]: the “weeding effect … Digitaria sanguinalis” value in test [1] was 5 (Level 5: growth control rate is above 85%). In addition, the “weeding effect … Abutilon theophrasti” value in test [2] is listed as 5 (Level 5: growth control rate is above 85%). Besides, the “weeding effect … Amaranthus retroflexus” value in test [3] is listed as 5 (Level 5: growth control rate is above 85%). The “weeding effect … Echinochloa crusgali” value in test [4] is given as 5 (Level 5: growth control rate is above 85%). Further, the “weeding effect … Setaria viridis” value in test [5] is on record as 5 (Level 5: growth control rate is above 85%).

Regarding `CCC(C)C[S@@+]([O-])c1c(C(F)(F)F)ccc(C(=O)Nc2nnc(C)o2)c1F` (stereo partly shown) [Compound 10], the “weeding effect … Digitaria sanguinalis” value in test [1] was 5 (Level 5: growth control rate is above 85%). Besides, in test [2], the “weeding effect … Abutilon theophrasti” value is 5 (Level 5: growth control rate is above 85%). In addition, the “weeding effect … Amaranthus retroflexus” value in test [3] is recorded as 5 (Level 5: growth control rate is above 85%). For the same molecule, the “weeding effect … Echinochloa crusgali” value in test [4] is 5 (Level 5: growth control rate is above 85%). In addition, the “weeding effect … Setaria viridis” value in test [5] is given as 5 (Level 5: growth control rate is above 85%).

As for `Cc1nnc(NC(=O)c2ccc(C(F)(F)F)c([S@+]([O-])CC(C)(C)C)c2F)o1` [Compound 11], the “weeding effect … Digitaria sanguinalis” value in test [1] is on record as 5 (Level 5: growth control rate is above 85%). For the same molecule, the “weeding effect … Abutilon theophrasti” value in test [2] is 5 (Level 5: growth control rate is above 85%). Also, the “weeding effect … Amaranthus retroflexus” value in test [3] is 5 (Level 5: growth control rate is above 85%). In test [4], the “weeding effect … Echinochloa crusgali” value was 5 (Level 5: growth control rate is above 85%). Besides, the “weeding effect … Setaria viridis” value in test [5] is recorded as 5 (Level 5: growth control rate is above 85%).

For `CCCCCC[S@@+]([O-])c1c(C(F)(F)F)ccc(C(=O)Nc2nnc(C)o2)c1F` [Compound 12], the “weeding effect … Digitaria sanguinalis” value in test [1] was 3 (Level 3: growth control rate is greater than or equal to 40% and less than 60%). The “weeding effect … Abutilon theophrasti” value in test [2] is listed as 5 (Level 5: growth control rate is above 85%). Moreover, in test [3], the “weeding effect … Amaranthus retroflexus” value is reported as 5 (Level 5: growth control rate is above 85%). Also, the “weeding effect … Echinochloa crusgali” value in test [4] is 5 (Level 5: growth control rate is above 85%). Moreover, in test [5], the “weeding effect … Setaria viridis” value is 3 (Level 3: growth control rate is greater than or equal to 40% and less than 60%).

Consider `CC=CC[S+]([O-])c1c(C(F)(F)F)ccc(C(=O)Nc2nnc(C)o2)c1F` (stereo not shown) [Compound 21], for which the “weeding effect … Digitaria sanguinalis” value in test [1] is 5 (Level 5: growth control rate is above 85%). For the same molecule, in test [2], the “weeding effect … Abutilon theophrasti” value is on record as 5 (Level 5: growth control rate is above 85%). For the same molecule, the “weeding effect … Amaranthus retroflexus” value in test [3] is on record as 5 (Level 5: growth control rate is above 85%). In test [4], the “weeding effect … Echinochloa crusgali” value is 5 (Level 5: growth control rate is above 85%). The “weeding effect … Setaria viridis” value in test [5] is reported as 5 (Level 5: growth control rate is above 85%).

`C#CCC[S@@+]([O-])c1c(C(F)(F)F)ccc(C(=O)Nc2nnc(C)o2)c1F` [Compound 24]: the “weeding effect … Digitaria sanguinalis” value in test [1] was 5 (Level 5: growth control rate is above 85%). The “weeding effect … Abutilon theophrasti” value in test [2] is listed as 5 (Level 5: growth control rate is above 85%). Moreover, in test [3], the “weeding effect … Amaranthus retroflexus” value is 5 (Level 5: growth control rate is above 85%). Moreover, the “weeding effect … Echinochloa crusgali” value in test [4] is given as 5 (Level 5: growth control rate is above 85%). Also, the “weeding effect … Setaria viridis” value in test [5] was 5 (Level 5: growth control rate is above 85%).

With `CC#CC[S@@+]([O-])c1c(C(F)(F)F)ccc(C(=O)Nc2nnc(C)o2)c1F` [Compound 25], the “weeding effect … Digitaria sanguinalis” value in test [1] is 5 (Level 5: growth control rate is above 85%). Besides, the “weeding effect … Abutilon theophrasti” value in test [2] is reported as 5 (Level 5: growth control rate is above 85%). Besides, the “weeding effect … Amaranthus retroflexus” value in test [3] is on record as 5 (Level 5: growth control rate is above 85%). Also, the “weeding effect … Echinochloa crusgali” value in test [4] is 5 (Level 5: growth control rate is above 85%). In addition, in test [5], the “weeding effect … Setaria viridis” value is reported as 5 (Level 5: growth control rate is above 85%).

For `Cc1nnc(NC(=O)c2ccc(C(F)(F)F)c([S@+]([O-])CC(C)F)c2F)o1` (stereo partly shown) [Compound 27], the “weeding effect … Digitaria sanguinalis” value in test [1] is listed as 5 (Level 5: growth control rate is above 85%). Besides, the “weeding effect … Abutilon theophrasti” value in test [2] was 5 (Level 5: growth control rate is above 85%). Further, the “weeding effect … Amaranthus retroflexus” value in test [3] is listed as 5 (Level 5: growth control rate is above 85%). Besides, the “weeding effect … Echinochloa crusgali” value in test [4] was 5 (Level 5: growth control rate is above 85%). Moreover, in test [5], the “weeding effect … Setaria viridis” value is 5 (Level 5: growth control rate is above 85%).

For `Cc1nnc(NC(=O)c2ccc(C(F)(F)F)c([S@+]([O-])CCC(F)F)c2F)o1` [Compound 28], the “weeding effect … Digitaria sanguinalis” value in test [1] was 5 (Level 5: growth control rate is above 85%). The “weeding effect … Abutilon theophrasti” value in test [2] is 5 (Level 5: growth control rate is above 85%). In addition, the “weeding effect … Amaranthus retroflexus” value in test [3] is on record as 5 (Level 5: growth control rate is above 85%). Also, the “weeding effect … Echinochloa crusgali” value in test [4] is 5 (Level 5: growth control rate is above 85%). Moreover, in test [5], the “weeding effect … Setaria viridis” value is 5 (Level 5: growth control rate is above 85%).

Regarding `Cc1nnc(NC(=O)c2ccc(C(F)(F)F)c([S@+]([O-])CC(C)(F)F)c2F)o1` [Compound 29], the “weeding effect … Digitaria sanguinalis” value in test [1] is listed as 5 (Level 5: growth control rate is above 85%). The “weeding effect … Abutilon theophrasti” value in test [2] is given as 5 (Level 5: growth control rate is above 85%). Besides, the “weeding effect … Amaranthus retroflexus” value in test [3] was 5 (Level 5: growth control rate is above 85%). Further, the “weeding effect … Echinochloa crusgali” value in test [4] is 5 (Level 5: growth control rate is above 85%). For the same molecule, the “weeding effect … Setaria viridis” value in test [5] is 5 (Level 5: growth control rate is above 85%).
